From patent publication US20080255115A1, “THIAZOLIDINEDIONE DERIVATIVES AS PI3 KINASE INHIBITORS” (priority 2007, published 2008)

Legend:
[1] = molecular target: T1, PI3Kα (Homo sapiens, UniProt P42336); test: PI3K Alpha Leadseeker SPA Assay; type: biochemical; conditions: His-p110/p85 PI3K alpha, SPA imaging beads, P33-ATP; read-out: IC50 against PI3Kα
T1 construct: His
Method: PI3K Alpha Leadseeker SPA Assay
Compounds of the present invention were tested according to the following assays and found as inhibitors of PI3 kinases, particularly PI3Kα. The activities (IC50) range from 1 to 500 μM against PI3Kα.
SPA imaging beads are microspheres containing scintillant which emit light in the red region of the visible spectrum. As a result, these beads are ideally suited to use with a CCD imager such as the Viewlux. The Leadseeker beads used in this system are polystyrene beads that have been coupled with polyethyleneimine. When added to the assay mixture, the beads absorb both the substrate (PIP2) and product (PIP3). Adsorbed P^33-PIP3 will cause an increase in signal, measured as ADUs (analog to digital units). This protocol details the use of the PEI-PS Leadseeker beads for assays using His-p110/p85 PI3K alpha.
Solid compounds are typically plated with 0.1 μl of 100% DMSO in all wells (except column 6 and 18) of a 384-well, flat bottom, low volume plate (Greiner 784075). […]
The assay buffer contains MOPS (pH 6.5), CHAPS, and DTT. […] The signal is determined using a Viewlux detector and is then imported into curve fitting software (Activity Base) for construction of concentration response curves. […]

[2] = tested on: Class I PI3-kinases; conditions: wortmannin, background section; read-out: IC50 against each of the various Class I PI3-kinases; cited from earlier work

T1 sequence (P42336 whole entry): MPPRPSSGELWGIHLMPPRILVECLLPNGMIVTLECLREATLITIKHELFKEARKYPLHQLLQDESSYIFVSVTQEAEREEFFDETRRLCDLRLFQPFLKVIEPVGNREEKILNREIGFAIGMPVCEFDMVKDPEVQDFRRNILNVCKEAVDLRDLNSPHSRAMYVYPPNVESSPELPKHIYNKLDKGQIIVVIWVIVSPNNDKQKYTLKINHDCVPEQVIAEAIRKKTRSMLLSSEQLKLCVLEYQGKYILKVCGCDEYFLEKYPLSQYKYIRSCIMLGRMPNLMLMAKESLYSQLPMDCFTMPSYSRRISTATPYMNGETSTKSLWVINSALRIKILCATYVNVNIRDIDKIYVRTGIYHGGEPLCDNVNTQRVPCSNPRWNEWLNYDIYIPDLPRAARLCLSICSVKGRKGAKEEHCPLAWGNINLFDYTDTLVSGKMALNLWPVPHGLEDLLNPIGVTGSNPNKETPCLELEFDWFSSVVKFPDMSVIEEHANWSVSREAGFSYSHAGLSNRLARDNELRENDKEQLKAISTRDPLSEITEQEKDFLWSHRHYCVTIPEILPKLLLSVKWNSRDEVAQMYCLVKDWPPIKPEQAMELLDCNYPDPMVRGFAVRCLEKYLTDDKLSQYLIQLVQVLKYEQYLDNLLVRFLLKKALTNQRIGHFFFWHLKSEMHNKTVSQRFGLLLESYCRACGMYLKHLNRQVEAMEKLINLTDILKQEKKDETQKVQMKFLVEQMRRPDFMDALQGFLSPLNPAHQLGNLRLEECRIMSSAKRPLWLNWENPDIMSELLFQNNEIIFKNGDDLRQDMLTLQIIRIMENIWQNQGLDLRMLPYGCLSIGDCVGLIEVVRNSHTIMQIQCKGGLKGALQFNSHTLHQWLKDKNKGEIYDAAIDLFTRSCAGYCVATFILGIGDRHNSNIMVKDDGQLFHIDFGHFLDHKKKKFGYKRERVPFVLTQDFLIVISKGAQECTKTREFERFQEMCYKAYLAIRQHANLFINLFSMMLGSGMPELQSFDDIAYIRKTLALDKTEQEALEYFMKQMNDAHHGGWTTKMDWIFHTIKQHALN
T1 sequence (P27986 whole entry partner): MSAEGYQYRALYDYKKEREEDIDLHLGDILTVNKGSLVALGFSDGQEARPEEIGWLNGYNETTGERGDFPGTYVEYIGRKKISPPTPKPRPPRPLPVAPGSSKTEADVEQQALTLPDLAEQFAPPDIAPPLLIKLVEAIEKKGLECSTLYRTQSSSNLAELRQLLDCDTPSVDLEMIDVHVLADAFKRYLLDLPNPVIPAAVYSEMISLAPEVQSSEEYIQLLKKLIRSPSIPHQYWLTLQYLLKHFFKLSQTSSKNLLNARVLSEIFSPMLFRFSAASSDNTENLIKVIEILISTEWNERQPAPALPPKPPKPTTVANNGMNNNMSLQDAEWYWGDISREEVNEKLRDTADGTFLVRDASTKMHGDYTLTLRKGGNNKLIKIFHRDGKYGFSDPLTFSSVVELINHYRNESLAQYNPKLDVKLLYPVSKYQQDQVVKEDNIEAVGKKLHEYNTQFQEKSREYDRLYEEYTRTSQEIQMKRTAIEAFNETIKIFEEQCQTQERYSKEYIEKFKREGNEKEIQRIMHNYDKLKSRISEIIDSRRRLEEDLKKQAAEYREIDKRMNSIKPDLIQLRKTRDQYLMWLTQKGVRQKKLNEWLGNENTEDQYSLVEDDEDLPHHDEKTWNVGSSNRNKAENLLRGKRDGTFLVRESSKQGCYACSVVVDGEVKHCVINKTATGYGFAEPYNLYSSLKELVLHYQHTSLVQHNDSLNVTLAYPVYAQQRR

| Compound | IC50 [1] [nM] | IC50 [2] [nM] |
| --- | --- | --- |
| O=C1NC(=O)/C(=C/c2ccc3nccc(-c4ccncc4)c3c2)S1 [Example 1, (5Z)-5-{[4-(4-pyridinyl)-6-quinolinyl]methylidene}-1,3-thiazolidine-2,4-dione] | 1000 | – |
| COC[C@H]1OC(=O)c2coc3c2[C@@]1(C)C1=C(C3=O)[C@@H]2CCC(=O)[C@@]2(C)C[C@H]1OC(C)=O [wortmannin] | – | 1 to 10 |
